From ChEMBL document CHEMBL5614382, “Discovery of a new 1-(phenylsulfonyl)-1H-indole derivative targeting the EphA2 receptor with antiproliferative activity on U251 glioblastoma cell line” (Eur J Med Chem, 2024) come the findings set out here.

The IC50 is the concentration needed to halve the response being measured. Usually Ki stands for the equilibrium dissociation constant of an inhibitor or competing ligand from its target.

One assay concerns the target T1, Ephrin type-A receptor 3 (Mus musculus, UniProt P29319).
T1 sequence (P29319 whole entry): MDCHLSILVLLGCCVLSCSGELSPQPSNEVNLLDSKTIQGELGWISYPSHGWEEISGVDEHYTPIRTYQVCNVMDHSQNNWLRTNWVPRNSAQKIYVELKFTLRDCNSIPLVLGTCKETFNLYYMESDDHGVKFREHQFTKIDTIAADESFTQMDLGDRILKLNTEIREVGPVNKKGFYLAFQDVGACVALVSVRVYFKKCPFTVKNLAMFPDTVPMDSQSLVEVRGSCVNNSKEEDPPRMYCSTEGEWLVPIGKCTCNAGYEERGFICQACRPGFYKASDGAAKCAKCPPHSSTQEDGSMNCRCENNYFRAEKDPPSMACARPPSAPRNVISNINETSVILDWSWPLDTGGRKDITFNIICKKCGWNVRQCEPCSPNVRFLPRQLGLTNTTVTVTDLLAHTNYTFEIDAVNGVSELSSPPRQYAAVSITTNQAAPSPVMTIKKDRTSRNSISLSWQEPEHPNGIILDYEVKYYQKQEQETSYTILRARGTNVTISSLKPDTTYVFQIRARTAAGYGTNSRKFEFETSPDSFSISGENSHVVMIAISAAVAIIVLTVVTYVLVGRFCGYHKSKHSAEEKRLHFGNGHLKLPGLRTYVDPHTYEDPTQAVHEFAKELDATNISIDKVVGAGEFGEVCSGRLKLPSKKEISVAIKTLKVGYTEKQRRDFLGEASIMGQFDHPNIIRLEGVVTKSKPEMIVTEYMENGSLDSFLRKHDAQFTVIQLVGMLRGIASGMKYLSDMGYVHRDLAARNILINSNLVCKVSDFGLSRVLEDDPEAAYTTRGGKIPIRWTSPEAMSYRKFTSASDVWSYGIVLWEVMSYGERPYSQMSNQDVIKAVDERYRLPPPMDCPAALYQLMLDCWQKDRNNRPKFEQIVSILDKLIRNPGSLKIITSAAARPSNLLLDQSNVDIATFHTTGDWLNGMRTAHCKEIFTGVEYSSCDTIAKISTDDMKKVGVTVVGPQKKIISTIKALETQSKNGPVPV
The assay can be described thus: Displacement of biotinylated Fc-tagged ephrin-A1 from recombinant N/C-terminal 6-his tagged mouse EphA3 (Glu21 to His541 residues) preincubated for 1 hr followed by ephrin-A1-Fc addition and measured after 4 to 5 hrs by ELISA assay. (In general: ELISA stands for enzyme-linked immunosorbent assay.)

The target in assay [1] is T2, Ephrin type-A receptor 2 (Mus musculus, UniProt Q03145). The assay can be described thus: Displacement of biotinylated Fc-tagged ephrin-A1 from C/N-terminal 6-His tag mouse recombinant EphA2 (Ala22 to Ala535 residues) assessed as inhibition constant preincubated for 1 hr followed by ephrin-A1-Fc addition and measured after 4 to 5 hrs by ELISA assay.
The target of assay [2] is Ephrin type-A receptor 2 (Homo sapiens) (UniProt P29317). Kind of assay: Induction of EphA2 phosphorylation in human U-251 cells. Format: cell-based.
Another assay concerns the target T3, Ephrin type-B receptor 2 (Mus musculus, UniProt P54763).
T3 sequence (P54763 whole entry): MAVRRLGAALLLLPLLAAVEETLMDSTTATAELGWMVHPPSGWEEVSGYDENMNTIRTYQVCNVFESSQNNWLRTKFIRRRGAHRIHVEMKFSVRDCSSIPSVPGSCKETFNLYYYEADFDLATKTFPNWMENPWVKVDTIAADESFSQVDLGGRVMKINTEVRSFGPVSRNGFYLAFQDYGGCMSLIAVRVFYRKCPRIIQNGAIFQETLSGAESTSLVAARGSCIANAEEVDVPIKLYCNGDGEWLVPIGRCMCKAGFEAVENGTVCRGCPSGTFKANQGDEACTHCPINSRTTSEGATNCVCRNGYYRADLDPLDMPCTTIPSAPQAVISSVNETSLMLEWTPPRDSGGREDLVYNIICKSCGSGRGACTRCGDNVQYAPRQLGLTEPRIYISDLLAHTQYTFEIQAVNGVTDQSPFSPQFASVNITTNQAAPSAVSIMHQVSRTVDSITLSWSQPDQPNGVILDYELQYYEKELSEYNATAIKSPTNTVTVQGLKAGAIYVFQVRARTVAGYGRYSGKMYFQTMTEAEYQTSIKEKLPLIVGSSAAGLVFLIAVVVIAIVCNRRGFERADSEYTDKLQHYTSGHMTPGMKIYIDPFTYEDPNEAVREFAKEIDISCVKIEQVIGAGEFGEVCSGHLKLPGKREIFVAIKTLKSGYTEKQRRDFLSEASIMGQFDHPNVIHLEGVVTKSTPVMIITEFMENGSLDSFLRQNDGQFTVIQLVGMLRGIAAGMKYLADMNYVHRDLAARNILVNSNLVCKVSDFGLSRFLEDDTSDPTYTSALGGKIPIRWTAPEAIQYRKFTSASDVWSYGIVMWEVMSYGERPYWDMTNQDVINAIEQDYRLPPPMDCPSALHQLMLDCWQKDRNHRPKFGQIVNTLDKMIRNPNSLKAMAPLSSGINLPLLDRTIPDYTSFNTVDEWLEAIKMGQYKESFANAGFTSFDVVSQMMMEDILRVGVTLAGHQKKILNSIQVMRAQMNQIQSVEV
Kind of assay: Displacement of biotinylated Fc-tagged ephrin-B1 from recombinant N/C-terminal 6-his tagged mouse EphB2 (Val27 to Lys548 residues) preincubated for 1 hr followed by ephrin-B1-Fc addition and measured after 4 to 5 hrs by ELISA assay.

Assay [3] relates to U-251. Kind of assay: Effect on EphA2 protein level in human U-251 cells in presence of ephrin-A1 at 30 uM incubated for 4 hrs by ELISA assay. Format: functional, cell-based.
In assay [4] the test system is U-251. Kind of assay: Antiproliferative activity against human U-251 cells assessed as increase in cell death at 30 uM measured after 48 hrs by MTT assay. It counts as functional, cell-based. (In general: Tetrazolium dyes change colour on reduction, which living cells bring about.)
Assay [5] deals with T2, Ephrin type-A receptor 2. Kind of assay: Displacement of biotinylated Fc-tagged ephrin-A1 from C/N-terminal 6-His tagged mouse recombinant EphA2 (Ala22 to Ala535 residues) preincubated for 1 hr followed by ephrin-A1-Fc addition and measured after 4 to 5 hrs by ELISA assay.
For the next assay, the target named is Ephrin type-A receptor 4 (Mus musculus, UniProt Q03137). The assay can be described thus: Displacement of biotinylated Fc-tagged ephrin-A1 from recombinant N/C-terminal 6-his tagged mouse EphA4 (Val20 to Thr547 residues) preincubated for 1 hr followed by ephrin-A1-Fc addition and measured after 4 to 5 hrs by ELISA assay.
In another assay the target is Ephrin type-A receptor 7 (Mus musculus, UniProt Q61772). Kind of assay: Displacement of biotinylated Fc-tagged ephrin-A1 from recombinant N/C-terminal 6-his tagged mouse EphA7 (Ala30 to Pro549 residues) preincubated for 1 hr followed by ephrin-A1-Fc addition and measured after 4 to 5 hrs by ELISA assay.
For assay [6], the system named is U-251. The assay can be described thus: Antiproliferative activity against human U-251 cells assessed as inhibition of cell growth at 30 uM measured after 72 hrs by MTT assay relative to control. Format: functional. Also noted: scale not given: the % may be the effect or the level left.
Assay [7] concerns U-251. Kind of assay: Antiproliferative activity against human U-251 cells assessed as inhibition of cell growth at 10 uM measured after 72 hrs by MTT assay. It counts as functional, cell-based.

Structures are written as SMILES. Calls of active or inactive are those of the source. The rule behind the calls is not given here. Bounds are passed on as bounds.

Sequence of Ephrin type-A receptor 4 (Q03137 whole entry): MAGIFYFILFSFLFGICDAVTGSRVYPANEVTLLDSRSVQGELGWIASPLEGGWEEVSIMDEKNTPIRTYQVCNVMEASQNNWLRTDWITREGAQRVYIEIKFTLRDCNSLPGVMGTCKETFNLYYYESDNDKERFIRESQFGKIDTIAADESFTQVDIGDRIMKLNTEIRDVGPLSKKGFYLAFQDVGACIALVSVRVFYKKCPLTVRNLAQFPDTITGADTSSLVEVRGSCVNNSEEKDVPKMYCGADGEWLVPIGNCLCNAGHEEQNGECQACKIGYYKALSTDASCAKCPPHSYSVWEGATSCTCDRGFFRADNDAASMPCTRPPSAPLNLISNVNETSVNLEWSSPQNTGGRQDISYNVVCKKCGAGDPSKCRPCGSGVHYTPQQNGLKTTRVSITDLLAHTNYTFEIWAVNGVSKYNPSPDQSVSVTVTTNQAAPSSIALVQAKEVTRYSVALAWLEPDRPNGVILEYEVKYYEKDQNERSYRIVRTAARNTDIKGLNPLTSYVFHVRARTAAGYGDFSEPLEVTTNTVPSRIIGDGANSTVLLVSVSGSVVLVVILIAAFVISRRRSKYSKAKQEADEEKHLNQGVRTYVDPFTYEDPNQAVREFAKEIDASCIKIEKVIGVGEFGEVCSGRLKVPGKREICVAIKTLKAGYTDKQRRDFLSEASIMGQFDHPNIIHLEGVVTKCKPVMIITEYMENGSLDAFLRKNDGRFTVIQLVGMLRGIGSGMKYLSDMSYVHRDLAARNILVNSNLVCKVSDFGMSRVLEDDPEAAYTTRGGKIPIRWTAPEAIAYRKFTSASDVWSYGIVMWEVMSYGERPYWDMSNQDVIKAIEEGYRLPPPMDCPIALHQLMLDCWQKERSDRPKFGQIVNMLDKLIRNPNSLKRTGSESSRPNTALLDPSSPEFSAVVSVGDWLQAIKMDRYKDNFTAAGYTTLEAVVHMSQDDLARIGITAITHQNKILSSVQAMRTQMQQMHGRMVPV
Sequence of Ephrin type-A receptor 7 (Q61772 whole entry): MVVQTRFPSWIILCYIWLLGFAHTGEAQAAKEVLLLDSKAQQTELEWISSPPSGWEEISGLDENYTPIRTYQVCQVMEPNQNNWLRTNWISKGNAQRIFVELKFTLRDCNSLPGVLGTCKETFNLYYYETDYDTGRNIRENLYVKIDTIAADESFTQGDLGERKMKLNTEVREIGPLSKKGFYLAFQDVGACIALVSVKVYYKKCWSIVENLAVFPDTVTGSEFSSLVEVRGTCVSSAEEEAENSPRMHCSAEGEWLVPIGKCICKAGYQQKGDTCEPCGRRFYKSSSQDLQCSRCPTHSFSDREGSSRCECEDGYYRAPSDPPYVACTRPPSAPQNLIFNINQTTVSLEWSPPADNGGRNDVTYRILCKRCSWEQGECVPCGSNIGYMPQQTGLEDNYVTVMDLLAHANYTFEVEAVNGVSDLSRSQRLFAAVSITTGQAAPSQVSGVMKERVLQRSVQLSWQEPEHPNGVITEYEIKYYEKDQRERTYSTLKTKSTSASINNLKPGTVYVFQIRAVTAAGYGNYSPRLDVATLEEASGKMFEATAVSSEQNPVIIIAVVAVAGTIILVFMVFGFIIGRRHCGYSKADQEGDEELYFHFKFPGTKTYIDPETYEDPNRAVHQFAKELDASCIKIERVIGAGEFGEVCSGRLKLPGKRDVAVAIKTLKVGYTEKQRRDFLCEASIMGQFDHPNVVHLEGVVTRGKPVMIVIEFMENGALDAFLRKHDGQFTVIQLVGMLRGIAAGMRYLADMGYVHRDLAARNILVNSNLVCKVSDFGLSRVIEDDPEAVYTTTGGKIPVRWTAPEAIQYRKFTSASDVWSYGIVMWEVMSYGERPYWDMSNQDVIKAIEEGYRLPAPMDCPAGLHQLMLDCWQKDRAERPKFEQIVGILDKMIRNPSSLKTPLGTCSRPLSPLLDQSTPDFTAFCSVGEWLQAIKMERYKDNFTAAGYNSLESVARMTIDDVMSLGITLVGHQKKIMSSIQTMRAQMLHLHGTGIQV
T2 sequence (Q03145 whole entry): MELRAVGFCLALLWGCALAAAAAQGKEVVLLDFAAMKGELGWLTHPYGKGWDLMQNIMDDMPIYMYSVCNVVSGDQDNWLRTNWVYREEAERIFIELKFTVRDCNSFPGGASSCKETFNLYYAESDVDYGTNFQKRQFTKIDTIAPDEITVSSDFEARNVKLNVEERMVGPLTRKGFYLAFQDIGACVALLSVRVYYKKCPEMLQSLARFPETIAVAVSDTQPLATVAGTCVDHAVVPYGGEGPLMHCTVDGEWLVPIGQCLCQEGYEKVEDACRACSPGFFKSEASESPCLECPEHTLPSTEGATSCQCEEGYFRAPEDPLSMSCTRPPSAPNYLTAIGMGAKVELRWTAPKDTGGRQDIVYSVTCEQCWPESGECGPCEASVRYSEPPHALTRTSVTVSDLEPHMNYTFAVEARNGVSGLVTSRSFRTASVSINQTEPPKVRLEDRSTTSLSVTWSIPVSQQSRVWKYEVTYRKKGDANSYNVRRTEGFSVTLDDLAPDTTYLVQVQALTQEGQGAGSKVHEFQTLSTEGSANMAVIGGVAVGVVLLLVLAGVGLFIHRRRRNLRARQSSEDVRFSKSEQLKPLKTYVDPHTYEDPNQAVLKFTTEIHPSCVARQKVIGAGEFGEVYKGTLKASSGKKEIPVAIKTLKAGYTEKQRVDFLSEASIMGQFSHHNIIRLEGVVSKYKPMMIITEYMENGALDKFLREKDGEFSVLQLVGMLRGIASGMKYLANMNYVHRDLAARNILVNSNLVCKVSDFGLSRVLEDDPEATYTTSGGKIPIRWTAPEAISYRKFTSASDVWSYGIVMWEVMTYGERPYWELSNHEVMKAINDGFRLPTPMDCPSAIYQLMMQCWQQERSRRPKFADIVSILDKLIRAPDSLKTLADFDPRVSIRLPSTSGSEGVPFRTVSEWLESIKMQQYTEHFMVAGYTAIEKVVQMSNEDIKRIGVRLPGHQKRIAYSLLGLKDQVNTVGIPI
Sequence of Ephrin type-A receptor 2 (Homo sapiens) (P29317 whole entry): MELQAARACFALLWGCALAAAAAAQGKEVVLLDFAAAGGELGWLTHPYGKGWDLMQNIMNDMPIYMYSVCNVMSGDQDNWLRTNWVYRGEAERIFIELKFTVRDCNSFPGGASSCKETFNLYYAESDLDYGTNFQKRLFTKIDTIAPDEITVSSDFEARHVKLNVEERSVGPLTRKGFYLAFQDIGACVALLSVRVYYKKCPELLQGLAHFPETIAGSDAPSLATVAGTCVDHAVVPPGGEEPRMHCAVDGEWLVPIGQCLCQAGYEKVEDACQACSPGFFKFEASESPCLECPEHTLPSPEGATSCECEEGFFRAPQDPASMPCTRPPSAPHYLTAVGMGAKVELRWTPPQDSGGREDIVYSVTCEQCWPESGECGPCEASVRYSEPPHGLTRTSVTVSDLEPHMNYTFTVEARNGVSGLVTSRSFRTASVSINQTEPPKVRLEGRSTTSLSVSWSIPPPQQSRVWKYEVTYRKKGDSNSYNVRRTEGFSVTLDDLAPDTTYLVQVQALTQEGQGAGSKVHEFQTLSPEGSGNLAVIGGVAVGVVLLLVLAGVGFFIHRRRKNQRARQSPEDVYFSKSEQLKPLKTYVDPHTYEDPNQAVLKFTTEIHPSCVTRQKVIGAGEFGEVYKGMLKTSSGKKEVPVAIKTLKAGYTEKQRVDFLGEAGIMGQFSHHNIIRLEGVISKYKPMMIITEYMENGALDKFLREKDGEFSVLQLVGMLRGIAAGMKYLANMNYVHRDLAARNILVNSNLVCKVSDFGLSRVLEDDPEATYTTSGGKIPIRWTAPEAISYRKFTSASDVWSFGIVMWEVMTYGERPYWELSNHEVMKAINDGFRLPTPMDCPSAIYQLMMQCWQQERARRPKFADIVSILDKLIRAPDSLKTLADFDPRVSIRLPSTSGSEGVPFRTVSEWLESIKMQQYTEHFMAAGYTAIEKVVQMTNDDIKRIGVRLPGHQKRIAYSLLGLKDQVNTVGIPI

`C[C@H](CCC(=O)N[C@H](CC(=O)O)Cc1cn(S(=O)(=O)c2ccc(C(F)(F)F)cc2)c2ccccc12)[C@H]1CC[C@H]2[C@@H]3CC=C4C[C@@H](O)CC[C@]4(C)[C@H]3CC[C@]12C`: the IC50 is 7.6 µM on Ephrin type-A receptor 3; above 30 µM at Ephrin type-B receptor 2; 2.6 µM at Ephrin type-A receptor 2 [5]; 4.2 µM at Ephrin type-A receptor 4; 15 µM at Ephrin type-A receptor 7. The Ki on Ephrin type-A receptor 2 [1] worked out at 2.8 µM. The result (in assay [2]; in the assay on U-251 [3]) was inactive. The outcome in the assay on U-251 [4] and in the assay with U-251 [7] was Active. In addition, the Activity with U-251 [6] was found to be 100%.

As to `C[C@H](CCC(=O)N[C@H](CC(=O)O)Cc1cn(S(=O)(=O)c2ccccc2)c2ccccc12)[C@H]1CC[C@H]2[C@@H]3CC=C4C[C@@H](O)CC[C@]4(C)[C@H]3CC[C@]12C`, the IC50 on Ephrin type-A receptor 3 is 11 µM; on Ephrin type-B receptor 2, above 30 µM; at Ephrin type-A receptor 2 [5] it was 8.1 µM; on Ephrin type-A receptor 4, 6.3 µM; on Ephrin type-A receptor 7 it was 22 µM. Further, the Ki on Ephrin type-A receptor 2 [1] was 2.2 µM.

For the compound `C[C@H](CCC(=O)N[C@H](CC(=O)O)Cc1c[nH]c2ccccc12)[C@H]1CC[C@H]2[C@@H]3CC=C4C[C@@H](O)CC[C@]4(C)[C@H]3CC[C@]12C`, the IC50 was found to be 4.1 µM at Ephrin type-A receptor 3, 2.8 µM on Ephrin type-A receptor 4 and 4.5 µM on Ephrin type-A receptor 7.
